From patent US9988400B2 (Genentech, Inc., priority 2013, dated 2018)

Molecular target: T1, HEK cells stably transfected with tetracycline inducible hNR1 and hNR2A (Homo sapiens, UniProt Q05586+Q12879)
T1 construct: expressed in transfected cells; host or cells: HEK cells, stably transfected, tetracycline/doxycycline inducible
Assay: Assay 1: Cell-Based Assay, cytosolic calcium response to positive allosteric modulators (with 30 μM glycine and 300 nM L-glutamate, EC30)
Settings: Table 2; for EC50: cytosolic calcium response, with 30 μM glycine and 300 nM L-glutamate (EC30), — = no plateau was reached; for Max %: responses scaled relative to 100 μM L-glutamate maximal response (100%) and 0 μM L-glutamate (0%)
Experimental: Assay 1: Cell-Based Assay
HEK cells stably transfected with tetracycline inducible hNR1 and hNR2A were seeded into clear bottom 384 well poly-D-lysine coated plates (2.5×10^4 cells per well) in Minimum Essential Media (MEM; without L-) including 7.5 μg mL^−1 doxycycline and 500 μM (+)-ketamine. The cells were incubated at 37° C. in 5% CO2 for 24 h. For measurement of changes in cytosolic calcium, the seeding media was removed and the cells incubated at 37° C. for 60 min with 1× Becton Dickinson Calcium Assay Kit reagent in Hanks Balanced Salt Solution (HBSS; w/o magnesium, including 1.8 mM calcium, 0.65 mg ml^−1 probenecid and 10 μM (+)-ketamine, pH 7.15) then allowed to equilibrate to rt for 30 min. Concentration-effect curves to Positive Allosteric Modulators (PAMs) were constructed by adding different concentrations (with 30 μM glycine and 300 nM L-glutamate (EC30)) to different wells in HBSS. Compounds were added after a 10 second baseline read and maximum level of relative fluorescence units (RFU) was measured over a 5 min period. Responses were scaled relative to 100 μM L-glutamate maximal response (100%) and 0 μM L-glutamate (0%). EC50 values are provided for compounds reaching maximal response plateaus, and the max % (EC50 (- -)) only if no plateau was reached.
A four-parameter Hill equation was fitted to individual concentration-effect curves:
[formula] in which Y, S0, Sinf, AC50, n and c were effect, lower-asymptote, upper-asymptote, mid-point location, slope parameter, and concentration respectively.

T1 sequence (Q12879 23-1464, other chains not shown): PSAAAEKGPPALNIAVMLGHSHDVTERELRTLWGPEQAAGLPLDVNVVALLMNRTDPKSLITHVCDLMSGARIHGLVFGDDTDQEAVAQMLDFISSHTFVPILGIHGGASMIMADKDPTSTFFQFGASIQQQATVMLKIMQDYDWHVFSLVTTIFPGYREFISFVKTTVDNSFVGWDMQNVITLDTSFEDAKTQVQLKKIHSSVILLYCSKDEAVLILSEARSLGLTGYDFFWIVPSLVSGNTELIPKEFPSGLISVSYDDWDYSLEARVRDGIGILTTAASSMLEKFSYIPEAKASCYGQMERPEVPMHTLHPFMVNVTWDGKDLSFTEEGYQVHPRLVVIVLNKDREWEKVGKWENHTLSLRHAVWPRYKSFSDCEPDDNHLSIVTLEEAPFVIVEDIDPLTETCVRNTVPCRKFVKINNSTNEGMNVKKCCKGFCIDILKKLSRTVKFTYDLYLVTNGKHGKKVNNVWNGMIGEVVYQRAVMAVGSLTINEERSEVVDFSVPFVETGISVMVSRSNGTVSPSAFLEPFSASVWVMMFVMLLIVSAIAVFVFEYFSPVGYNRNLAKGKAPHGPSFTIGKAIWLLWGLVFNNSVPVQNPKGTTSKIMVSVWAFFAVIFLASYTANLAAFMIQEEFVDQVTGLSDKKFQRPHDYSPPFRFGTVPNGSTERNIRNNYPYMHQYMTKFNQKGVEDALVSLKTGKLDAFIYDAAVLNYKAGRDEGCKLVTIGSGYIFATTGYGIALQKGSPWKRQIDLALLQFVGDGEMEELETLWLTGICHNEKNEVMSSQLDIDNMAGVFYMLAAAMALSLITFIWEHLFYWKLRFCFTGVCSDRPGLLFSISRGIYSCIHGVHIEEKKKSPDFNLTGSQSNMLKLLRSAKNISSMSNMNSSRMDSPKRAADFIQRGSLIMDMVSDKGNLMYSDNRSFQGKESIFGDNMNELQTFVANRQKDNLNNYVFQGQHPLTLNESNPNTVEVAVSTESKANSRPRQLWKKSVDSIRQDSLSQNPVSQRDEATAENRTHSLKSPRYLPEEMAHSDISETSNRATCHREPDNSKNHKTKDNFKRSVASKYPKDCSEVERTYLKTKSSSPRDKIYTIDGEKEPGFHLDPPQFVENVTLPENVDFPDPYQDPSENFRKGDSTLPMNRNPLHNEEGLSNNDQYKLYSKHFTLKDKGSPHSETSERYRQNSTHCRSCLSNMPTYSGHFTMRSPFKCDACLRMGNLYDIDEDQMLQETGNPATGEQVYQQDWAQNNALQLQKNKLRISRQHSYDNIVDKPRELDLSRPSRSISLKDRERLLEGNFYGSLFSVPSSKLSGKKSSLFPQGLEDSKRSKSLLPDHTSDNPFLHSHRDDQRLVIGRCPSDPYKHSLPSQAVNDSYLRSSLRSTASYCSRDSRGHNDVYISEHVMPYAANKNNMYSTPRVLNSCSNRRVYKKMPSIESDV

Row | EC50 [µM] | Max % [%] | SMILES
1 | 12.2 | 116 | Cc1sc2nc(C(C)n3nc(C(F)(F)F)cc3C3CC3)cc(=O)n2c1[C@@H]1C[C@H]1CO (relative stereo) [Example 19.1, 7-(1-(5-cyclopropyl-3-(trifluoromethyl)-1H-pyrazol-1-yl)ethyl)-3-(trans-2-(hydroxymethyl)cyclopropyl)-2-methyl-5H-thiazolo[3,2-a]pyrimidin-5-one]
2 | 1.8 | 148 | Cc1sc2nc(Cc3cccc(C#N)c3F)cc(=O)n2c1[C@@H]1C[C@H]1CO (relative stereo) [Example 20.3, 2-fluoro-3-((3-(trans-2-(hydroxymethyl)cyclopropyl)-2-methyl-5-oxo-5H-thiazolo[3,2-a]pyrimidin-7-yl)methyl)benzonitrile]
3 | 8.5 | 147 | Cc1sc2nc(Cc3cncc4ccccc34)cc(=O)n2c1[C@@H]1C[C@H]1CO (relative stereo) [Example 20.4, 3-(trans-2-(hydroxymethyl)cyclopropyl)-7-(isoquinolin-4-ylmethyl)-2-methyl-5H-thiazolo[3,2-a]pyrimidin-5-one]
4 | 24 | 124 | Cc1sc2nc(Cc3cccc(C(F)(F)F)c3)cc(=O)n2c1[C@@H]1C[C@H]1CO (relative stereo) [Example 20.5, 3-(trans-2-(hydroxymethyl)cyclopropyl)-2-methyl-7-(3-(trifluoromethyl)benzyl)-5H-thiazolo[3,2-a]pyrimidin-5-one]
5 | 7.2 | 137 | Cc1ccc(C#N)cc1Cc1cc(=O)n2c([C@@H]3C[C@H]3CO)c(C)sc2n1 (relative stereo) [Example 20.6, 3-((3-(trans-2-(hydroxymethyl)cyclopropyl)-2-methyl-5-oxo-5H-thiazolo[3,2-a]pyrimidin-7-yl)methyl)-4-methylbenzonitrile]
6 | 10.8 | 137 | Cc1sc2nc(Cc3cc(C#N)ccc3F)cc(=O)n2c1[C@@H]1C[C@H]1CO (relative stereo) [Example 20.7, 4-fluoro-3-((3-(trans-2-(hydroxymethyl)cyclopropyl)-2-methyl-5-oxo-5H-thiazolo[3,2-a]pyrimidin-7-yl)methyl)benzonitrile]
7 | 19 | 134 | Cc1sc2nc(Cc3cc(F)cc(C#N)c3)cc(=O)n2c1[C@@H]1C[C@H]1CO (relative stereo) [Example 20.8, 3-fluoro-5-((3-(trans-2-(hydroxymethyl)cyclopropyl)-2-methyl-5-oxo-5H-thiazolo[3,2-a]pyrimidin-7-yl)methyl)benzonitrile]
8 | 13.9 | 133 | Cc1sc2nc(Cc3ccc(F)c(C#N)c3)cc(=O)n2c1[C@@H]1C[C@H]1CO (relative stereo) [Example 20.9, 2-fluoro-5-((3-(trans-2-(hydroxymethyl)cyclopropyl)-2-methyl-5-oxo-5H-thiazolo[3,2-a]pyrimidin-7-yl)methyl)benzonitrile]
9 | 9.1 | 127 | COc1ccc(C#N)cc1Cc1cc(=O)n2c([C@@H]3C[C@H]3CO)c(C)sc2n1 (relative stereo) [Example 20.10, 3-[[3-[trans-2-(hydroxymethyl)cyclopropyl]-2-methyl-5-oxo-thiazolo[3,2-a]pyrimidin-7-yl]methyl]-4-methoxy-benzonitrile]
10 | – | 74 | Cc1sc2nc(Cc3ccnc(C#N)c3)cc(=O)n2c1[C@@H]1C[C@H]1CO (relative stereo) [Example 20.12, 4-((3-(trans-2-(hydroxymethyl)cyclopropyl)-2-methyl-5-oxo-5H-thiazolo[3,2-a]pyrimidin-7-yl)methyl)picolinonitrile]
11 | 5.8 | 146 | Cc1sc2nc(Cc3cc(C#N)ccc3C3CC3)cc(=O)n2c1[C@@H]1C[C@H]1CO (relative stereo) [Example 20.13, 4-cyclopropyl-3-((3-(trans-2-(hydroxymethyl)cyclopropyl)-2-methyl-5-oxo-5H-thiazolo[3,2-a]pyrimidin-7-yl)methyl)benzonitrile]

More lines, now with the values behind:

Row | SMILES | EC50 [µM] | Max % [%]
12 | Cc1cc(C)n(Cc2cc(=O)n3c([C@@H]4C[C@H]4CO)c(C)sc3n2)n1 (relative stereo) [Example 15.25, 7-[(3,5-dimethylpyrazol-1-yl)methyl]-3-[trans-2-(hydroxymethyl)cyclopropyl]-2-methyl-thiazolo[3,2-a]pyrimidin-5-one] | 16.5 | 137
13 | Cc1sc2nc(Cn3ncc4cc(F)ccc43)cc(=O)n2c1[C@@H]1C[C@H]1CO (relative stereo) [Example 15.26, 7-[(5-fluoroindazol-1-yl)methyl]-3-[trans-2-(hydroxymethyl)cyclopropyl]-2-methyl-thiazolo[3,2-a]pyrimidin-5-one] | 3.8 | 123
14 | Cc1sc2nc(COc3ccc(F)cc3)cc(=O)n2c1C1CC1CO (single isomer, unassigned) [Example 4.1, 7-(4-Fluorophenoxymethyl)-3-[trans-2-(hydroxymethyl)cyclopropyl]-2-methyl-5H-[1,3]thiazolo[3,2-a]pyrimidin-5-one] | 5.1 | 141
15 | Cc1sc2nc(COc3ccc(F)cc3)cc(=O)n2c1C1CC1CO (single isomer, unassigned) [Example 4.2, 7-(4-Fluorophenoxymethyl)-3-[trans-2-(hydroxymethyl)cyclopropyl]-2-methyl-5H-[1,3]thiazolo[3,2-a]pyrimidin-5-one] | 1.3 | 137
16 | Cc1sc2nc(COc3ccc(F)cc3)cc(=O)n2c1C1CC1CO (single isomer, unassigned) [Example 4.3, 7-(4-Fluorophenoxymethyl)-3-[trans-2-(hydroxymethyl)cyclopropyl]-2-methyl-5H-[1,3]thiazolo[3,2-a]pyrimidin-5-one] | 20.5 | 71.6
17 | Cc1sc2nc(COc3ccc(F)cc3)cc(=O)n2c1C1CC1C#N (single isomer, unassigned) [Example 4.19, cis-2-[7-(4-Fluorophenoxymethyl)-2-methyl-5-oxo-5H-[1,3]thiazolo[3,2-a]pyrimidin-3-yl]cyclopropane-1-carbonitrile] | 9 | 46.9
18 | Cc1sc2nc(COc3ccc(F)cc3)cc(=O)n2c1C1CC1C#N (single isomer, unassigned) [Example 4.20, cis-2-[7-(4-Fluorophenoxymethyl)-2-methyl-5-oxo-5H-[1,3]thiazolo[3,2-a]pyrimidin-3-yl]cyclopropane-1-carbonitrile] | 2.4 | 93.9
19 | Cc1sc2nc(COc3ccc(F)cc3)cc(=O)n2c1[C@@H]1C[C@H]1C#N (single isomer, unassigned) [Example 4.21, trans-2-[7-(4-Fluorophenoxymethyl)-2-methyl-5-oxo-5H-[1,3]thiazolo[3,2-a]pyrimidin-3-yl]cyclopropane-1-carbonitrile] | 16.3 | 47.4
20 | Cc1sc2nc(COc3ccc(F)cc3)cc(=O)n2c1[C@@H]1C[C@H]1C#N (single isomer, unassigned) [Example 4.22, trans-2-[7-(4-Fluorophenoxymethyl)-2-methyl-5-oxo-5H-[1,3]thiazolo[3,2-a]pyrimidin-3-yl]cyclopropane-1-carbonitrile] | – | 84.2
21 | CCN(Cc1cc(=O)n2c(C3CC3CO)c(C)sc2n1)c1ccc(F)cc1 (single isomer, unassigned) [Example 5.18, 7-((ethyl(4-fluorophenyl)amino)methyl)-3-(trans-2-(hydroxymethyl)cyclopropyl)-2-methyl-5H-thiazolo[3,2-a] pyrimidin-5-one] | 0.091 | 164
22 | CCN(Cc1cc(=O)n2c(C3CC3CO)c(C)sc2n1)c1ccc(F)cc1 (single isomer, unassigned) [Example 5.19, 7-((ethyl(4-fluorophenyl)amino)methyl)-3-(trans-2-(hydroxymethyl)cyclopropyl)-2-methyl-5H-thiazolo[3,2-a] pyrimidin-5-one] | 1.7 | 141
23 | Cc1sc2nc(CN(CCF)c3ccc(F)cc3)cc(=O)n2c1C1CC1CO (single isomer, unassigned) [Example 5.42, 7-[[4-fluoro-N-(2-fluoroethyl)anilino]methyl]-3-trans-2-(hydroxymethyl)cyclopropyl]-2-methyl-thiazolo[3,2-a]pyrimidin-5-one] | 0.0329 | 162
24 | Cc1sc2nc(CN(CCF)c3ccc(F)cc3)cc(=O)n2c1[C@@H]1C[C@H]1CO (single isomer, unassigned) [Example 5.43, 7-[[4-fluoro-N-(2-fluoroethyl)anilino]methyl]-3-[trans-2-(hydroxymethyl)cyclopropyl]-2-methyl-thiazolo[3,2-a]pyrimidin-5-one] | 0.821 | 145
